According to US11452727B2, “Combination therapy for treating cancer” (Epizyme, Inc., priority 2017, dated 2022):

Assays:
Test in all cases: In vitro combination study with tazemetostat, cell proliferation (Cell Titer Glo)
[1] = system: NCI-H2122; conditions: 7 days tazemetostat pre-treatment, 6 days co-treatment with second agent
Method: (§1) Initial proliferation studies were performed to determine the IC50 of tazemetostat in each cell line. For the screen, tazemetostat was used at concentrations bracketed around the IC50 value. If 50% inhibitory concentration was not reached then tazemetostat was tested starting at 10 μM.
(§2) In order to study the effect of dual combination of tazemetostat and a second agent on cell proliferation, cells in log-linear phase growth rate were pre-treated with various concentrations of tazemetostat or DMSO for 7 days in flasks, plated in 384-well plates in the absence of compounds and co-treated on day 8 with tazemetostat or DMSO and the second agent serially diluted for additional 6 days (as depicted in FIG. 1). On day 15, plates were developed for endpoint analysis using Cell Titer Glo to measure ATP content, which was used as an indicator of cell viability. DMSO concentration was kept constant throughout the assay at 0.15% v/v.
(§3) All cell lines were obtained from American Type Culture Collection (ATCC; Rockville, Md.). […] A427, Calu-3, Calu-6 cell lines were cultured in EMEM+10% Fetal bovine serum (FBS)+1% v/v Penicillin/Streptomycin (P/S).

[2] = system: NCI-H2110; conditions: 7 days tazemetostat pre-treatment, 6 days co-treatment with second agent
[3] = system: NCI-H838; conditions: 7 days tazemetostat pre-treatment, 6 days co-treatment with second agent
[4] = system: NCI-H1993; conditions: 7 days tazemetostat pre-treatment, 6 days co-treatment with second agent
[5] = system: NCI-H522; conditions: 7 days tazemetostat pre-treatment, 6 days co-treatment with second agent
Method: as §1, §2

[6] = system: A427; conditions: A427; 7 days tazemetostat pre-treatment, 6 days co-treatment with second agent
Method: as §1, §2, §3

[7] = system: NCI-H661; conditions: 7 days tazemetostat pre-treatment, 6 days co-treatment with second agent
[8] = system: NCI-H1793; conditions: 7 days tazemetostat pre-treatment, 6 days co-treatment with second agent
Method: as §1, §2
NCI-H1573 was cultured in DMEM: F12 Medium containing the following components: 0.02 mg/ml insulin, 0.01 mg/ml transferrin, 25 nM sodium selenite, 50 nM Hydrocortisone, 1 ng/ml Epidermal Growth Factor, 0.01 mM ethanolamine, 0.01 mM phosphorylethanolamine, 100 pM triiodothyronine, 0.5% (w/v) bovine serum albumin, 0.5 mM sodium pyruvate, 4.5 mM L-glutamine and 1% v/v Pen/Strep.

[9] = system: NCI-H1573; conditions: 7 days tazemetostat pre-treatment, 6 days co-treatment with second agent
[10] = system: HCC827; conditions: 7 days tazemetostat pre-treatment, 6 days co-treatment with second agent
[11] = system: Calu-3; conditions: 7 days tazemetostat pre-treatment, 6 days co-treatment with second agent
[12] = system: A549; conditions: 7 days tazemetostat pre-treatment, 6 days co-treatment with second agent
Method: as §1, §2

[13] = system: NCI-H1299; conditions: 7 days tazemetostat pre-treatment, 6 days co-treatment with second agent
[14] = system: NCI-H1703; conditions: 7 days tazemetostat pre-treatment, 6 days co-treatment with second agent
[15] = system: NCI-H2030; conditions: 7 days tazemetostat pre-treatment, 6 days co-treatment with second agent
[16] = system: NCI-H23; conditions: 7 days tazemetostat pre-treatment, 6 days co-treatment with second agent
Method: as §1, §2, §3

[17] = system: Calu-6; conditions: 7 days tazemetostat pre-treatment, 6 days co-treatment with second agent
Method: as §1, §2

[18] = system: NCI-H460; conditions: 7 days tazemetostat pre-treatment, 6 days co-treatment with second agent

Row | SMILES | combinatorial effect with tazemetostat (Loewe volume class) [1] | combinatorial effect with tazemetostat (Loewe volume class) [2] | combinatorial effect with tazemetostat (Loewe volume class) [3] | combinatorial effect with tazemetostat (Loewe volume class) [4] | combinatorial effect with tazemetostat (Loewe volume class) [5] | combinatorial effect with tazemetostat (Loewe volume class) [6] | combinatorial effect with tazemetostat (Loewe volume class) [7] | combinatorial effect with tazemetostat (Loewe volume class) [8] | combinatorial effect with tazemetostat (Loewe volume class) [9] | combinatorial effect with tazemetostat (Loewe volume class) [10] | combinatorial effect with tazemetostat (Loewe volume class) [11] | combinatorial effect with tazemetostat (Loewe volume class) [12] | combinatorial effect with tazemetostat (Loewe volume class) [13] | combinatorial effect with tazemetostat (Loewe volume class) [14] | combinatorial effect with tazemetostat (Loewe volume class) [15] | combinatorial effect with tazemetostat (Loewe volume class) [16] | combinatorial effect with tazemetostat (Loewe volume class) [17] | combinatorial effect with tazemetostat (Loewe volume class) [18]
1 | C=CCn1c(=O)c2cnc(Nc3ccc(N4CCN(C)CC4)cc3)nc2n1-c1cccc(C(C)(C)O)n1 [MK-1775] | Add. (A value between −1 and 1 denoted “additivity”) | Add. (A value between −1 and 1 denoted “additivity”) | Add. (A value between −1 and 1 denoted “additivity”) | Add. (A value between −1 and 1 denoted “additivity”) | Syn. (Loewe volumes greater than 1 denoted “synergy”) | Syn. (Loewe volumes greater than 1 denoted “synergy”) | Syn. (Loewe volumes greater than 1 denoted “synergy”) | Syn. (Loewe volumes greater than 1 denoted “synergy”) | Syn. (Loewe volumes greater than 1 denoted “synergy”) | Add. (A value between −1 and 1 denoted “additivity”) | Add. (A value between −1 and 1 denoted “additivity”) | Add. (A value between −1 and 1 denoted “additivity”) | Add. (A value between −1 and 1 denoted “additivity”) | Syn. (Loewe volumes greater than 1 denoted “synergy”) | Syn. (Loewe volumes greater than 1 denoted “synergy”) | Syn. (Loewe volumes greater than 1 denoted “synergy”) | Syn. (Loewe volumes greater than 1 denoted “synergy”) | Add. (A value between −1 and 1 denoted “additivity”)
2 | CC(=O)c1c(C)c2cnc(Nc3ccc(N4CCNCC4)cn3)nc2n(C2CCCC2)c1=O [Palbociclib, palbociclib] | Anta. (volumes <−1 denoted “antagonism”) | Add. (A value between −1 and 1 denoted “additivity”) | Add. (A value between −1 and 1 denoted “additivity”) | Syn. (Loewe volumes greater than 1 denoted “synergy”) | No eff. | Syn. (Loewe volumes greater than 1 denoted “synergy”) | Syn. (Loewe volumes greater than 1 denoted “synergy”) | Syn. (Loewe volumes greater than 1 denoted “synergy”) | Syn. (Loewe volumes greater than 1 denoted “synergy”) | Add. (A value between −1 and 1 denoted “additivity”) | Add. (A value between −1 and 1 denoted “additivity”) | Add. (A value between −1 and 1 denoted “additivity”) | Anta. (volumes <−1 denoted “antagonism”) | Anta. (volumes <−1 denoted “antagonism”) | Add. (A value between −1 and 1 denoted “additivity”) | Syn. (Loewe volumes greater than 1 denoted “synergy”) | Add. (A value between −1 and 1 denoted “additivity”) | Add. (A value between −1 and 1 denoted “additivity”)
3 | CN(C)C(=O)c1cc2cnc(Nc3ccc(N4CCNCC4)cn3)nc2n1C1CCCC1 [Ribociclib, ribociclib] | Anta. (volumes <−1 denoted “antagonism”) | No eff. | Add. (A value between −1 and 1 denoted “additivity”) | Syn. (Loewe volumes greater than 1 denoted “synergy”) | No eff. | Syn. (Loewe volumes greater than 1 denoted “synergy”) | Syn. (Loewe volumes greater than 1 denoted “synergy”) | Syn. (Loewe volumes greater than 1 denoted “synergy”) | Syn. (Loewe volumes greater than 1 denoted “synergy”) | Add. (A value between −1 and 1 denoted “additivity”) | Syn. (Loewe volumes greater than 1 denoted “synergy”) | Anta. (volumes <−1 denoted “antagonism”) | Anta. (volumes <−1 denoted “antagonism”) | Anta. (volumes <−1 denoted “antagonism”) | Syn. (Loewe volumes greater than 1 denoted “synergy”) | No eff. | No eff. | Add. (A value between −1 and 1 denoted “additivity”)
4 | Cn1cnc2c(F)c(Nc3ccc(Br)cc3Cl)c(C(=O)NOCCO)cc21 [Selumetinib, selumetinib] | Anta. (volumes <−1 denoted “antagonism”) | Syn. (Loewe volumes greater than 1 denoted “synergy”) | Syn. (Loewe volumes greater than 1 denoted “synergy”) | Syn. (Loewe volumes greater than 1 denoted “synergy”) | Syn. (Loewe volumes greater than 1 denoted “synergy”) | Syn. (Loewe volumes greater than 1 denoted “synergy”) | Syn. (Loewe volumes greater than 1 denoted “synergy”) | Syn. (Loewe volumes greater than 1 denoted “synergy”) | Syn. (Loewe volumes greater than 1 denoted “synergy”) | Add. (A value between −1 and 1 denoted “additivity”) | Syn. (Loewe volumes greater than 1 denoted “synergy”) | Add. (A value between −1 and 1 denoted “additivity”) | Add. (A value between −1 and 1 denoted “additivity”) | Syn. (Loewe volumes greater than 1 denoted “synergy”) | Add. (A value between −1 and 1 denoted “additivity”) | Add. (A value between −1 and 1 denoted “additivity”) | Syn. (Loewe volumes greater than 1 denoted “synergy”) | Anta. (volumes <−1 denoted “antagonism”)
